Here are results for 3 molecules from publication PMC9182188, “Isoquinoline Alkaloid Contents in Macleaya cordata Extracts and Their Acetylcholinesterase and Butyrylcholinesterase Inhibition” (Molecules, 2022).

≈ marks a conversion by molar mass, not a printed value. Where two headings read alike, the source gives them in different places.

The target of series [1] is T1, acetylcholinesterase (Homo sapiens, UniProt P22303).
T1 construct: purchased Sigma-Aldrich
The series is classed as biochemical. The following applies: alkaloid standards; HPLC-DAD; 0.2 U/mL enzyme; 15 min at 37 °C; pH 7.8. Here is the method:
For determination of acetylcholinesterase inhibitory activity of alkaloid standards and plant extracts by HPLC analysis was performed on the same apparatus as determination of alkaloid contents on Polar RP column with mobile phase A containing methanol and 0.0025 M diethylamine, mobile phase B containing acetate buffer at pH 3.8 and 0.0025 M diethylamine, mobile phase in gradient elution: 0–15 min, 10% A; 15–30 min, 10–70% A; 30–60 min, 70% A. Flow rate was 1 mL/min.
Samples for determination of acetylcholinesterase inhibitory activity were prepared by addition of 50 µL of acetylthiocholine iodide, 50 µL of 5′-dithiobis-(2-nitrobenzoic acid), 50 µL of acetylcholinesterase at concentration 2 U/mL and phosphate buffer at pH 7.8 to obtaining 500 µL of final solution. […] All components were mixed and samples were incubated for 15 min at 37 °C. Samples were filtrated by syringe filter (CHROMAFIL Xtra, PVDF-29/25 0.20 µm) and injected into HPLC system. […] All experiments were performed in triplicates.

Series [2] deals with T2, butyrylcholinesterase (Homo sapiens, UniProt P06276).
T2 construct: purchased Sigma-Aldrich
T2 sequence (P06276 29-602): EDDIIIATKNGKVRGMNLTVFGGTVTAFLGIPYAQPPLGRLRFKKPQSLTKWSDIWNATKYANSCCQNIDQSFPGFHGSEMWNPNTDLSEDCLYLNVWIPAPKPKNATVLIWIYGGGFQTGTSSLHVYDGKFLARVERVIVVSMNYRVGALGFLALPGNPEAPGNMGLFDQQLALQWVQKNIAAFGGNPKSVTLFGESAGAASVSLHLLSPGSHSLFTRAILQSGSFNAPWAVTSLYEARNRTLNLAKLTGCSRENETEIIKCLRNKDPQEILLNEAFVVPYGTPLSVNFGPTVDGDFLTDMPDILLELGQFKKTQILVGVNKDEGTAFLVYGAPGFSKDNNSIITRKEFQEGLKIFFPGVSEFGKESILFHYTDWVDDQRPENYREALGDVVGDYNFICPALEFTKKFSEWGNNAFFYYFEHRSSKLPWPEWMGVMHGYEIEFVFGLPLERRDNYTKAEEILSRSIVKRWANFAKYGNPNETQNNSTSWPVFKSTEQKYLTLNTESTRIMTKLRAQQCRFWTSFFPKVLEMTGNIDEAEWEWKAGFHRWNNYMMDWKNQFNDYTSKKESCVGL
The experiment in a line: Butyrylcholinesterase inhibitory activity by HPLC-DAD (Ellman reaction product TNBA). It counts as biochemical. The note with it: alkaloid standards, 0.2 U/mL enzyme, 15 min at 37 °C. On the procedure:
For determination of butyrylcholinesterase inhibitory activity of alkaloid standards and plant extracts by HPLC analysis was performed on the same apparatus, column and mobile phase as determination of acetylcholinesterase inhibitory activity.
Samples for determination of butyrylcholinesterase inhibitory activity were prepared by addition of 50 µL of butyrylthiocholine iodide, 50 µL of 5′-dithiobis-(2-nitrobenzoic acid), 50 µL of butyrylcholinesterase at concentration 2 U/mL and phosphate buffer at pH 7.8 to obtaining 500 µL of final solution. […] All components were mixed and samples were incubated for 15 min at 37 °C. Samples were filtrated by syringe filter (CHROMAFIL Xtra, PVDF-29/25 0.20 µm) and injected into HPLC system. […] All experiments were performed in triplicates.
(DTNB colorimetry detects thiols as they appear.)

Series [3] has as its target T1, acetylcholinesterase. The experiment in a line: Kinetic analysis of acetylcholinesterase inhibition (Lineweaver-Burk and secondary plots). It counts as biochemical. The following applies: for type of acetylcholinesterase inhibition: Lineweaver-Burk and Dixon plots; for Ki: estimated from slope of Lineweaver-Burk plots vs inhibitor concentration, read-out: Ki (inhibition constant), acetylcholinesterase. The text has this:
The type of inhibition and inhibition constants (Ki value) of the compounds were investigated using Lineweaver–Burk and Dixon plots (Figure 5 and Figure 6).
The Ki values were estimated by plotting the slope of the individual Lineweaver–Burk plots versus the inhibitor concentrations (Figure 5B and Figure 6B).
For determination of 5-thio-2-nitro-benzoic acid, the product of reaction between the thiocholine with Ellman’s reagent, HPLC-DAD method was applied. The chromatographic analysis was performed in the same conditions as was used for determination of cholinesterase activity described above. Quantification of 5-thio-2-nitro-benzoic acid was performed by a calibration curve method. 5-thio-2-nitrobenzoic acid was prepared from 5′-dithiobis-(2-nitrobenzoic acid) as described by Landino et al.. 0.5 g of 5′-dithiobis-(2-nitrobenzoic acid) in 25 mL 0.5 M Tris–HCl, pH 8.8, was treated with 2.5 mL β-mercaptoethanol. The pH of the solution was adjusted to 1.5 with 6M HCl. 5-thio-2-nitro-benzoic acid was formed after 6–8 h at 4 °C. The crystals of -thio-2-nitro-benzoic acid were filtered and washed with cold 0.1 M HCl. Types of inhibition were determined by the graphical analysis of Lineweaver–Burk plots and its secondary plots.

Series [4] concerns the target T1, acetylcholinesterase. The note with it: modified Ellman's method; read-out: IC50 against acetylcholinesterase; cited from earlier work.
The target of series [5] is T2, butyrylcholinesterase. The following applies: modified Ellman's method; read-out: IC50 against butyrylcholinesterase; cited from earlier work.
Series [6] deals with swine or human cell lines. The following applies: cited from earlier work.
The test system of series [7] is pig livers. The note with it: 32P-post-labeling assay; cited from earlier work.
[8] abbreviates: pH 7.8, read-out: IC50 values Butyrylcholinesterae.
Where [9] appears, read: pH 7.8, read-out: IC50 values Butyrylcholinesterae (μg/mL) (converted).

T1 sequence (P22303 32-614, species assumed): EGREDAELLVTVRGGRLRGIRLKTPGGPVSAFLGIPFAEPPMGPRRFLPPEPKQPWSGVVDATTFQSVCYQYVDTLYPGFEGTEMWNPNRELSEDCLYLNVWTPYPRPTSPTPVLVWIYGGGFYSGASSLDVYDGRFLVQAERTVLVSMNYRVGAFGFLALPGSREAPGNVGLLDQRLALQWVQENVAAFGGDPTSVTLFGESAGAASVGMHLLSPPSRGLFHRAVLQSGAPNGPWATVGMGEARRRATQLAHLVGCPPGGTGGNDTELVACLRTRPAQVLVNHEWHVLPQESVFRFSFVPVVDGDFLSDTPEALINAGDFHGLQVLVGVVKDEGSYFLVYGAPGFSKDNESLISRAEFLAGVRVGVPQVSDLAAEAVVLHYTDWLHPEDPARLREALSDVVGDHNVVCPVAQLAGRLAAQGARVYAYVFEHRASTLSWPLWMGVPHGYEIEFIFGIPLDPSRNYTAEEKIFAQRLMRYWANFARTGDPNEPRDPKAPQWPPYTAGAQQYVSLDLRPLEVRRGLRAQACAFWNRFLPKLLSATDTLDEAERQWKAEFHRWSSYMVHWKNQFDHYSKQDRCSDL

`COc1ccc2c(c[n+](C)c3c4cc5c(cc4ccc23)OCO5)c1OC` [Chelerythrine, chelerythrine]: the IC50 in series [1] was 0.72 ± 0.08 µM; in series [2] (setting [8]) it was 2.15 ± 0.19 µM; in series [2] (setting [9]), 2.15 µM; in series [4], 1.03 µM; in series [5], 3.55 µM. For the same molecule, the “type of acetylcholinesterase inhibition” value in series [3] is on record as “competitive”. In addition, in series [3], the Ki (commonly the dissociation constant of the complex between target and ligand, obtained from inhibition or displacement) is 0.18 µM. Besides, in series [6], the toxicity entry is listed as “low toxicity”. Also, the DNA adducts result in series [7] is “no DNA adducts”.

As to `CN1CCc2cc3c(cc2C(=O)Cc2ccc4c(c2C1)OCO4)OCO3` [Protopine, protopine], the “IC50 values Acetylcholinesterase” value in series [1] was found to be 24.67 µg/mL (≈ 69.8 µM). In addition, the IC50 in series [2] (IC50 values Butyrylcholinesterae (μM), pH 7.8) was 52.8 ± 4.81 µM; in series [2] (IC50 values Butyrylcholinesterae (μg/mL), pH 7.8), 52.8 µM.

Consider `C[n+]1cc2c3c(ccc2c2ccc4cc5c(cc4c21)OCO5)OCO3` [Sanguinarine, sanguinarine], for which the figures for the IC50 in series [1], in series [2] (setting [8]) and in series [2] (setting [9]) were 5.57 ± 0.47 µM, 9.82 ± 0.91 µM and 9.81 µM, respectively. Moreover, in series [3], the “type of acetylcholinesterase inhibition” value is “noncompetitive”. The inhibition constant (Ki) in series [3] is 0.2 µM. Also, the toxicity entry in series [6] is listed as “low toxicity”. Further, the DNA adducts result in series [7] is listed as “no DNA adducts”.
